According to patent publication US20030057401A1, “Inhibitor compositions” (priority 1999, published 2003):

Test system: sessile SRB colonies
Assay: Experiment 4: biocidal efficacy for planktonic and sessile bacteria, studs from Robins device, 3 hr contact
Assay type: cell-based, Sulphate Reducing Bacteria (SRB)
Conditions: if it can penetrate the glycocalyx
Experimental: The purpose of killing planktonic SRB is to prevent the formation of sessile SRB colonies. A series of tests has been conducted in which viable sessile cultures have been treated with a range of biocides. Synthetic Seawater [table] Additional nutrients were added to water to encourage bacteria growth. Experiment 4 is a comparison of biocidal efficacy for planktonic and sessile bacteria. Viable SRB colonies are established on studs in a Robins device. The studs are removed, washed in sterile sea water and treated with solutions containing the test biocide. After exposures of 1, 3, 4, 8 or extended periods, coupons are rinsed, scraped and suspended in fresh synthetic sea water. Serial dilutions and ATP analyses are conducted on the samples to determine bacterial activity.

Question: How did the “comparative biocidal efficacy on sessile SRB colonies” value turn out when O=CCCCC=O [glutaraldehyde] was run?
Answer: more effective biocide than quaternary amines
